Data on 19 molecules can be found in PMC3028607.

SMILES strings stand for the structures.

A short description of the data set: SmI2-mediated 8-endo-trig ketyl-alkene radical cyclisation (C-C bond between ketone carbon and distal styrene carbon); SmI2 2.2 equiv, HMPA 18 equiv, t-BuOH 2 equiv; substrate added over 2 h, then 16 h. The conditions noted are these: THF, 15.0 mM, 22.0 °C.

Regarding `COC(=O)[C@@H]1Cc2ccccc2CC(C)C2(O)CCCC[C@@H]12` (stereo partly shown), the ring closure, isolated yield (from C/C=C/c1ccccc1C[C@@H](C(=O)OC)[C@@H]1CCCCC1=O, 8-membered ring) worked out at 11%. For `COC(=O)C1Cc2ccccc2C(C)CC(C)(O)C1` (stereo not shown) [4 (to 9 40% + 10 38%)], under “from C=C(C)c1ccccc1CC(CC(C)=O)C(=O)OC, 8-membered ring”, the ring closure, isolated yield was determined as 78%. `COC(=O)[C@@H]1Cc2ccccc2CCC2(O)CCCCC[C@@H]12` (stereo partly shown) [5a (to 6; 23% SM recovered)]: under “from C=Cc1ccccc1C[C@@H](C(=O)OC)[C@@H]1CCCCCC1=O, 8-membered ring”, the ring closure, isolated yield is 42%. In the case of `COC(=O)[C@@H]1Cc2ccccc2CCC2(O)CCCCC[C@H]12` (stereo partly shown) [5b (no product; 62% SM recovered)], the ring closure, isolated yield (from C=Cc1ccccc1C[C@@H](C(=O)OC)[C@H]1CCCCCC1=O, 8-membered ring) was found to be 0%. With `COC(=O)[C@@H]1Cc2ccccc2C(C)CC2(O)CCCC[C@@H]12` (stereo partly shown) [7a (to 8)], the ring closure, isolated yield (from C=C(C)c1ccccc1C[C@@H](C(=O)OC)[C@@H]1CCCCC1=O, 8-membered ring) stood at 63%. In the case of `COC(=O)C1Cc2ccccc2C(C)CC(O)(C(C)C)C1` (stereo not shown) [11 (to 12 54% + 13 28%)], for the setting “from C=C(C)c1ccccc1CC(CC(=O)C(C)C)C(=O)OC, 8-membered ring”, the ring closure, isolated yield turned out to be 82%. For the molecule `COC(=O)C1Cc2ccccc2C(C)CC(O)(C(C)C)C1(C)C` (stereo not shown) [14 (only fragmentation 15, 58%)], the ring closure, isolated yield (from C=C(C)c1ccccc1CC(C(=O)OC)C(C)(C)C(=O)C(C)C, 8-membered ring) came to 0%.

Turning to `COC(=O)C1Cc2ccccc2C(c2ccccc2)CC(O)(C(C)C)C1` (stereo not shown) [16 (to 17a 37% + 17b 22%)], the ring closure, isolated yield (from C=C(c1ccccc1)c1ccccc1CC(CC(=O)C(C)C)C(=O)OC, 8-membered ring) is 59%. With `COC(=O)C1Cc2ccccc2CC(C)C(C)(O)C1` (stereo not shown) [18 (to 19; 20% ketyl-aryl product 20)], the ring closure, isolated yield (from C/C=C/c1ccccc1CC(CC(C)=O)C(=O)OC, 8-membered ring) was 54%. For the molecule `CCC1(O)CC(C(=O)OC)Cc2ccccc2CC1C` (stereo not shown) [21 (to 22; 6% fragmentation 23)], the ring closure, isolated yield (from C/C=C/c1ccccc1CC(CC(=O)CC)C(=O)OC, 8-membered ring) stood at 56%. On to `COC(=O)C1Cc2ccccc2CC(C)C(O)(C(C)C)C1` (stereo not shown) [24 (to 25)], for which the ring closure, isolated yield (from C/C=C/c1ccccc1CC(CC(=O)C(C)C)C(=O)OC, 8-membered ring) turned out to be 63%.

Take `COC(=O)[C@@H]1Cc2ccccc2CC(C)C2(O)CCCC[C@H]12` (stereo partly shown) [26b (to lactone 29; 27% fragmentation 23; 40% SM)]: the ring closure, isolated yield (from C/C=C/c1ccccc1C[C@@H](C(=O)OC)[C@H]1CCCCC1=O, 8-membered ring) is 9%. On to `COC(=O)C1Cc2ccccc2CC(C)C(O)(C(C)C)C1` (stereo not shown) [30 (to 31; 31% fragmentation 32; 32% SM)], for which the ring closure, isolated yield (from C/C=C\c1ccccc1CC(CC(=O)C(C)C)C(=O)OC, 8-membered ring) was determined as 8%. As to `COC(=O)C1Cc2ccccc2CC(C2CC2)C(O)(C(C)C)C1` (stereo not shown) [33 (to 34; 47% fragmentation 35)], the ring closure, isolated yield (from COC(=O)C(CC(=O)C(C)C)Cc1ccccc1/C=C/C1CC1, 8-membered ring) is 24%. `COC(=O)C1Cc2ccccc2CC(c2ccccc2)C(O)(C(C)C)C1` (stereo not shown) [36 (to 37; 20% SM)]: the ring closure, isolated yield (from COC(=O)C(CC(=O)C(C)C)Cc1ccccc1/C=C/c1ccccc1, 8-membered ring) was 47%. Take `COC(=O)[C@@H]1Cc2ccccc2CC(c2ccccc2)C2(O)CCCC[C@@H]12` (stereo partly drawn) [38a (no 8-ring; 7-exo product 39, 44%)]: for the setting “from COC(=O)[C@H](Cc1ccccc1/C=C/c1ccccc1)[C@@H]1CCCCC1=O, 8-membered ring”, the ring closure, isolated yield stood at 0%. Turning to `COC(=O)[C@@H]1Cc2ccccc2CC(c2ccccc2)C2(O)CCCC[C@H]12` (stereo partly drawn) [38b (no 8-ring; 7-exo lactone 40, 63%)], the ring closure, isolated yield (from COC(=O)[C@H](Cc1ccccc1/C=C/c1ccccc1)[C@H]1CCCCC1=O, 8-membered ring) came out at 0%. On to `COC(=O)C1Cc2ccccc2CC(C)(C)C(C)(O)C1` (stereo not shown) [41 (no 8-ring; ketyl-aryl 42 14% + 43 7%)], for which, under “from COC(=O)C(CC(C)=O)Cc1ccccc1C=C(C)C, 8-membered ring”, the ring closure, isolated yield was 0%. Regarding `COC(=O)C1Cc2ccccc2CC(C)C(O)(C(C)C)C1(C)C` (stereo not shown) [(E)-1-propenyl analogue of 14 (only fragmentation)], the ring closure, isolated yield (from C/C=C/c1ccccc1CC(C(=O)OC)C(C)(C)C(=O)C(C)C, 8-membered ring) came to 0%.
